In patent US20120021979A1 (Vanderbilt University, priority 2010, published 2012):

Experiments:
DAT [1] = test: radiolabeled DA [3H-DA] uptake in striatal slices; assay type: cell-based; conditions: 100 nM for 10 min, 3H-DA 10 min, vs vehicle
Protocol: Slices were exposed to ^3H-DA for 10 min and then washed to remove excess DA at 4° C. to stop uptake. Slices were homogenized and ^3H-DA quantified by a scintillation counter.

Na+/K+ ATPase = test: slice based biotinylation, Na+/K+ ATPase surface expression in striatal slices; assay type: cell-based; conditions: 100 nM, 20 min, rat striatal slices, vs vehicle
Description: In addition, the absence of tyrosine hydroxylase (TH, a cytosolic protein found in DAT terminals) from the biotinylated surface fraction serves a control for the integrity of our slice preparation and specificity of the surface signal.

DAT [2] = test: chronoamperometry of AMPH-induced DA efflux in striatal slices; assay type: cell-based; conditions: pretreatment 100 nM for 20 min, AMPH 10 μM
Description: Chronoamperometry was used to evaluate AMPH-induced DA efflux in striatal slices.

GLP-1 receptor = biological target: T1, GLP-1 receptor (Rattus norvegicus, UniProt P32301); test: locomotor activity with or without AMPH; assay type: in vivo
T1 construct: from tissue; host or cells: whole animal (in vivo, i.p. dosing)
T1 sequence (P32301 22-463): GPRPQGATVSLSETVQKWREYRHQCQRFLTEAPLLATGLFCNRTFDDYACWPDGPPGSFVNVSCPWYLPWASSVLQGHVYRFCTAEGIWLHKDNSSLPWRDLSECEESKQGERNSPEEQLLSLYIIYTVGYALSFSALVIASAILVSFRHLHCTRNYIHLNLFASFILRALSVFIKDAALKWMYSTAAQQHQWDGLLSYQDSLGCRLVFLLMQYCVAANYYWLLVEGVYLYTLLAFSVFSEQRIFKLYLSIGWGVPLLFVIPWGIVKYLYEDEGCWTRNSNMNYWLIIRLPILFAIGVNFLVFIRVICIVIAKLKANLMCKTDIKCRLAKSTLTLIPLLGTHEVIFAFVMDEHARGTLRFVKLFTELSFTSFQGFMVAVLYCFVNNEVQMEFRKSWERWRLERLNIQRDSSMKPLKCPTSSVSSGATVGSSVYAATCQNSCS

AMPH-induced locomotor activity (GLP-1 receptor; 30 μg/kg i.p. 90 min prior to AMPH 2.78 mg/Kg i.p.)	basal locomotion (GLP-1 receptor; 30 μg/kg i.p., absence of AMPH)	Substance	DA uptake (3H-DA) (DAT [1])	surface expression of the Na+/K+ ATPase (Na+/K+ ATPase)	AMPH-induced increase in extracellular DA (DAT [2])
		Glucagon-like peptide-1 [GLP-1]	significantly increased	did not affect	significantly potentiates
significantly decreased	significantly decreased	exendin-4 [EX4]			
